Laboratory results as given in patent EP0804206B1, “ANTIFUNGAL AGENT CONTAINING CROTAMITON, AND SALICYCLIC ALDEHYDE” (Pierre Fabre Dermo-Cosmetique, priority 1995, dated 1996).

Test system: Trichophyton mentagrophytes n° 8611
Test: Minimal fungistatic concentration (CMF) of the products alone and combined, with FIC index
Assay type: cell-based
Excerpt: La synergie peut être mise-en évidence par le calcul des index FIC (Fractional Inhibitory Concentration) ou FBC (Fractional Bactericidal Concentration) des produits. Pour cela, on mesure la valeur de la CMF (ou concentration minimale fongistatique), ou de la CMϕ (ou concentration minimale fongicide), des principes actifs à tester vis-à-vis d'un type de germe.
Le FIC d'un produit A est défini comme : FICA (CMF du produit A en association)/(CMF du produit A seul) [formula]
L'association de deux antifongiques A et B est synergique si la somme FIC des rapports (FICA + FICB) est inférieure ou égale à 0,75.
On considère qu'il y a simple additivité pour des valeurs de FIC comprises entre 0,75 et 1,1, et indifférence dans l'intervalle compris entre 1,1 et 2; au-delà, l'association est notée antagoniste.
Après détermination des niveaux de concentrations minimales inhibitrices pour chaque souche, les associations entre les différents principes actifs sont testées. Le FIC Index =(CMI crotamiton associé)/(CMI crotamiton seul)+(CMI salicylaldéhyde associé)/(CMI salicylaldéhyde seul) [formula] est calculé.
Les activités antifongiques du crotamiton et du salicylaldéhyde ont été recherchées sur Trichophyton mentagrophytes.
Les concentrations minimales fongistatiques des produits seuls et associés sont présentées ici.
• * Souche • Trichophyton mentagrophytes n° 8611 • * Milieux de culture • Bouillon Sabouraud • Gélose Sabouraud • Eau distillée stérile • * Produits • Crotamiton (Borhinger, lot-209313) • Salicylaldéhyde Prolabo Rectapur encapsulé dans β cyclodextrines = formule aldéhydique
Les solutions-mère aqueuses des produits suivants ont été testées pour leur meilleure solubilité et sans artéfact d'activité antifongique : • Crotamiton : 0,2% dans 10% PEG 200 • Solution aqueuse à 10% aldhéhyde salicylique.
Les essais sont réalisés plusieurs fois car ces produits sont très volatils, rendant la lecture des tests très difficile. […]

`CC=CC(=O)N(CC)c1ccccc1C` [Crotamiton, N-éthyl-O crotonotoluidide] was tested, and the “fois moins de produit pour obtenir le même effet antifongique que les produits utilisés seuls” value (combined versus alone, formule aldéhydique at 10% aldehyde) was 30 fois, the “CMF = Concentrations Minimales Fongistatiques, Seul” value (product alone, T. mentagrophytes calibrated at 10^6 spores per ml) was 0,1% and the “CMF = Concentrations Minimales Fongistatiques, Associés” value (product in the binary combination Crotamiton - Formule aldéhydique, T. mentagrophytes 10^6 spores per ml) was 0,003%.
